Columns and labels:
[1] = test system: TGF beta-3; experiment: TGF beta-3 immunohistochemical staining in monkey ovarian epithelium; format: in vivo, cynomolgus monkeys; conditions: Triphasil-pattern doses in diet
Text: (§1) Young female adult cynomolgus monkeys were fed a diet for three years that contained either no hormones, the oral combination contraceptive “[…],” the estrogenic component of “[…] estradiol) alone, or the progestin component of “[…]” (levonorgestrel) alone, each administered in the same pattern that occurs in a “[…]” regimen. Doses were scaled on the basis of caloric intake, which is the accepted way to achieve human-equivalent doses. […] This cyclic regimen was repeated every 28 days continuously for 2 years. In a similar experiment, the effect of hormone treatment on expression of TGF-β3 was examined in the ovaries of primates from the trial described above. This study uses monkeys that were randomized in the study above of apoptosis in the ovarian epithelium. […] Ovarian sections from each of the monkeys were stained immunohistochemically for expression of TGF beta-3, using an anti-TGF-beta-3 monoclonal antibody. […] Two blinded observers then quantitated degree of expression of TGF-β3 by grading the intensity of staining on a scale of 1-4+ in several ovarian compartments: 1) epithelium, 2) oocytes, 3) endothelial cells, 4) granulosa cells. The staining was characterized as negative (0-2+) versus positive (3-4+). The following tables show the distribution of negative (0-2) and positive (3-4) staining among the randomized treatment groups for each separate ovarian compartment (i.e.: epithelial, oocyte cytoplasm, granulosa, and endothelial).

[2] = test system: TGF beta-3; experiment: TGF beta-3 immunohistochemical staining in monkey ovarian oocytes; format: in vivo, cynomolgus monkeys; conditions: Triphasil-pattern doses in diet
Text: as §1

[3] = test system: ovarian epithelial cells; experiment: Apoptosis in monkey ovarian surface epithelium in vivo (Apoptag-plus staining); set-up: species or system cynomolgus monkeys; conditions: in diet, Triphasil-pattern human-equivalent doses, 28-day cycles for 2 years
Text: Young female adult cynomolgus monkeys were fed a diet for […] that contained either no hormones, the oral combination contraceptive “[…],” the estrogenic component of “[…] estradiol) alone, or the progestin component of “[…]” (levonorgestrel) alone, each administered in the same pattern that occurs in a “[…]” regimen. Doses were scaled on the basis of caloric intake, which is the accepted way to achieve human-equivalent doses. […] This cyclic regimen was repeated every 28 days continuously for 2 years. At the completion of the two years of the study, the animals were sacrificed, and their ovaries were removed and both formalin-fixed and paraffin embedded as well as flash frozen and stored at minus 70 degrees Celsius. Five-micron ovarian sections were mounted on coated slides, and stained with the Apoptag-plus kit (Oncor, Gaithersburg, Md.), which specifically labels the 3' end of free DNA fragments in cells undergoing DNA fragmentation, a characteristic of apoptosis. After staining, cells undergoing apoptosis were easily identified by their dark brown nuclear discoloration. The ovarian surface epithelium was examined histologically to assess ovarian epithelial morphology and to determine the percentage of ovarian cells undergoing apoptosis. To calculate the percentage of ovarian epithelial cells undergoing apoptosis, both the total number of ovarian epithelial cells and the number undergoing apoptosis were counted on each five-micron ovarian section. At each step, the investigators were completely blinded with regard to which treatment group was associated with each ovary.

[4] = test system: TGF beta-3; experiment: TGF beta-3 immunohistochemical staining in monkey ovarian granulosa cells; format: in vivo, cynomolgus monkeys; conditions: Triphasil-pattern doses in diet
Text: as §1

[5] = test system: TGF beta-3; experiment: TGF beta-3 immunohistochemical staining in monkey ovarian endothelial cells; format: in vivo, cynomolgus monkeys; conditions: Triphasil-pattern doses in diet
Text: as §1

[6] = test system: TGF β3; experiment: Anti-TGF β3 immunohistochemical staining of M-100 cells; format: cell-based, human; conditions: 100 nM, 72 hours
Description: An immortalized cell line, M-100, derived from a normal human ovarian epithelial cell culture established in our laboratory was plated in 100 mm plates at a concentration of 1 million cells per plate, in the presence of either 1,25 (OH)2 D3 or the Vitamin D analogue […] at doses of each (100 nM) or control medium, and allowed to incubate for 72 hours. After 72 hours, cells were scraped from each of the plates, fixed on glass slides, and stained immunohistochemically with anti-TGF β3 antibody.

[7] = serum; cited from earlier work
[8] = test system: human ovarian epithelial cells; experiment: Cell death ELISA in normal human ovarian epithelial cell culture; format: cell-based; conditions: 100 nM, 96 hours, p=0.01
Description: Example 10 addresses the effect of administration of Vitamin D on human ovarian epithelial cells. According to this example, a cell culture derived from normal ovarian epithelial cells was plated in 24 well plates at a concentration of 100,000 cells per well. After 24 hours, the wells were treated with 1,25-dihydroxyvitamin D3 at a 100 nM concentration or control medium, and allowed to incubate for 96 hours. All experiments were carried out in triplicate. After 96 hours, cell lysates were extracted from each of the wells, and the cytoplasmic fraction was normalized for cell number and analyzed for DNA-histone complexes indicative of apoptosis using a cell death ELISA (Boehringer Mannheim). A significant (300%) increase in apoptosis (p=0.01) was measured in the human ovarian epithelial cells treated with Vitamin D as compared with the controls.

[9] = test system: ovarian and oviductal tumors; experiment: Two-year chemoprevention trial in the chicken; format: in vivo; conditions: two-year mark; feed restriction (anovulatory); preliminary results
Description: A two-year prevention trial was performed in the chicken, designed to test the hypothesis that progestins confer prevention against ovarian cancer. Two thousand two year-old birds were randomized into several groups, including untreated controls, and groups receiving the progestins provera or levonorgestrel. The trial has just completed, and tumors accrued during the trial are currently being studied.

[10] = test system: M-100 immortalized human ovarian epithelial cells; experiment: Cell death ELISA (DNA-histone complexes) in M-100 cells; format: cell-based; conditions: 20 ng/ml, 96 hours, P<0.05
Description: Specifically, a spontaneously immortalized cell line, M-100, derived from a normal human ovarian epithelial cell culture was plated in 24 well plates at a concentration of 100,000 cells per well. […] All experiments were performed in triplicate.

## C#C[C@]1(O)CC[C@H]2[C@@H]3CCc4cc(O)ccc4[C@H]3CC[C@@]21C [Ethinyl Estradiol (EE), ethinyl estradiol]
[1]
  Epithelial staining Negative (0-2+), number of monkeys: 19
  Epithelial staining Positive (3-4+), number of monkeys: 2
  Epithelial staining Positive (3-4+), percent of monkeys: (10%)
[2]
  Oocyte cytoplasm staining Negative (0-2+), number of monkeys: 4
  Oocyte cytoplasm staining Positive (3-4+), number of monkeys: 17
  Oocyte cytoplasm staining Positive (3-4+), percent of monkeys: (81%)
[3]
  Median Percent of Apoptotic Cell Counts: 1.8%
  Range Percent of Apoptotic Cell Counts: 0.1-28.6%
[3]; listed as Ethinyl-estradiol-only
  Median Percent of Apoptotic Cell Counts: 1.8%
[4]
  Granulosa Cell staining Negative (0-2+), number of monkeys: 13
  Granulosa Cell staining Positive (3-4+), number of monkeys: 8
  Granulosa Cell staining Positive (3-4+), percent of monkeys: (38%)
[5]
  Endothelial staining Negative (0-2+), number of monkeys: 21
  Endothelial staining Positive (3-4+), number of monkeys: 5
  Endothelial staining Positive (3-4+), percent of monkeys: (23%)

## C=C1/C(=C\C=C2/CCC[C@]3(C)[C@@H]([C@H](C)/C=C/C=C/C(O)(CC)CC)CC[C@@H]23)C[C@@H](O)C[C@@H]1O [E1089]
[6]
  TGF β3 expression as compared to controls (in words): significant increase in TGF β3 expression

## C=C1/C(=C\C=C2/CCC[C@]3(C)[C@@H]([C@H](C)CCCC(C)(C)O)CC[C@@H]23)C[C@@H](O)C[C@@H]1O [1,25-dihydroxyvitamin D3]
[7]
  half-life: 6 to 8 h
[6]
  TGF β3 expression as compared to controls (in words): significant increase in TGF β3 expression
[8]
  increase in apoptosis as compared with the controls: 300%

## C#C[C@]1(O)CC[C@H]2[C@@H]3CCC4=CC(=O)CC[C@@H]4[C@H]3CC[C@@]21CC [Levonorgestrel, levonorgestrel]
[1]
  Epithelial staining Negative (0-2+), number of monkeys: 0
  Epithelial staining Positive (3-4+), number of monkeys: 17
  Epithelial staining Positive (3-4+), percent of monkeys: (100%)
[2]
  Oocyte cytoplasm staining Negative (0-2+), number of monkeys: 3
  Oocyte cytoplasm staining Positive (3-4+), number of monkeys: 14
  Oocyte cytoplasm staining Positive (3-4+), percent of monkeys: (82%)
[9]
  fewer ovarian and oviductal tumors than controls: 35%
[3]
  Median Percent of Apoptotic Cell Counts: 24.9%
  Range Percent of Apoptotic Cell Counts: 3.5-61.8%
[4]
  Granulosa Cell staining Negative (0-2+), number of monkeys: 16
  Granulosa Cell staining Positive (3-4+), number of monkeys: 1
  Granulosa Cell staining Positive (3-4+), percent of monkeys: (6%)
[10]
  increase in apoptosis as compared to controls: 100%
[5]
  Endothelial staining Negative (0-2+), number of monkeys: 1
  Endothelial staining Positive (3-4+), number of monkeys: 16
  Endothelial staining Positive (3-4+), percent of monkeys: (94%)

## CC(=O)O[C@]1(C(C)=O)CC[C@H]2[C@@H]3C[C@H](C)C4=CC(=O)CC[C@]4(C)[C@H]3CC[C@@]21C [provera, medroxyprogesterone acetate]
[9]
  fewer ovarian and oviductal tumors than controls: 35%

## C=C1CC[C@H](O)C/C1=C/C=C1\CCC[C@]2(C)[C@@H]([C@H](C)CCCC(C)(C)O)CC[C@@H]12 [25-hydroxyvitamin D3]
[7]
  biological half-life (in words): several weeks
